Results as given in EP0748335B1, “ANTIBIOTIC STALOBACINS” (SHIONOGI & CO., LTD., priority 1994, dated 1995).
Converted amounts (≈) assume the structure as drawn.

Assays:
S. aureus FDA JC-1 = experiment: In vitro antibacterial activity, agar dilution method; format: cell-based; conditions: 10^6 cfu/ml
Protocol: (§1) Antibacterial activity in vitro of antibiotic stalobacins H and I obtained in Example 1 was assayed by the agar dilution method.

S. aureus 3626 (MRSA) = experiment: as above; format: cell-based; conditions: 10^6 cfu/ml
Protocol: as §1

S. faecalis SR1004 = experiment: as above; format: cell-based; conditions: 10^6 cfu/ml
Protocol: as §1

[1] = system: S. aureus SR3637 (H-MRSA); experiment: Protective effect in systemically infected mice; format: in vivo; conditions: mice challenged intraperitoneally with S. aureus SR3637 (H-MRSA); subcutaneous administration one hour after challenge; survival ratio on 7th day
Protocol: (§2) Antibacterial activity in vivo of stalobacin I was assayed. Mice were intraperitoneally challenged with infectious bacteria. One hour after the challenge, the test compound was subcutaneously administered. ED50 values was calculated on the basis of survival ratio on 7th day after the challenge. MIC was determined according to the agar dilution method.

S. pneumoniae Type I [2] = experiment: Protective effect in systemically infected mice; format: in vivo; conditions: mice challenged intraperitoneally with S. pneumoniae Type I; subcutaneous administration one hour after challenge; survival ratio on 7th day
Protocol: as §2

E. faecalis SR1004 [3] = experiment: Protective effect in systemically infected mice; format: in vivo; conditions: mice challenged intraperitoneally with E. faecalis SR1004; subcutaneous administration one hour after challenge; survival ratio on 7th day
Protocol: as §2

[4] = system: S. aureus SR3637 (H-MRSA); format: cell-based
Protocol: as §2

S. pneumoniae Type I [5] = format: cell-based
Protocol: as §2

E. faecalis SR1004 [6] = format: cell-based
Protocol: as §2

MIC [4]: 0.012 µg/mL (≈ 9.05 nM) | MIC (S. pneumoniae Type I [5]): 0.006 µg/mL (≈ 4.53 nM) | MIC (E. faecalis SR1004 [6]): 0.2 µg/mL (≈ 151 nM)
Compound: CCCCCC/C=C\CCCCC[C@@H]1C[C@H]1/C=C/C(O)C(=O)N[C@H](C(=O)N(C)[C@@H](CC(=O)O)C(=O)N(COC(C)(CC)C(NC(=O)C(NC(=O)[C@@H](N)CC(=O)O)C(O)C(O)CNC(=N)N)C(=O)NCC(=O)N[C@@H](CO)C(=O)O)[C@@]12C[C@@H]1CN(C(=N)N)C2=O)[C@H](O)C(=O)O (stereo partly drawn) [Stalobacin I]
Antibacterial activity in vitro (S. aureus FDA JC-1): 0.05 µg/mL | Antibacterial activity in vitro (S. aureus 3626 (MRSA)): 0.1 µg/mL | Antibacterial activity in vitro (S. faecalis SR1004): 0.2 µg/mL | ED50 [1]: 0.12 mg/kg | ED50 (S. pneumoniae Type I [2]): 0.046 mg/kg | ED50 (E. faecalis SR1004 [3]): 1.50 mg/kg
